Measured values as given in patent US10501518B2 (priority 2013, dated 2019).
Starred links: 1 amine or outer side, 2 acyl side, 3 side chain; linkers in the order of their positions; H or OH if unused. Non-standard residues stand in square brackets, D forms with d. Residues, ends and D or L forms follow the SMILES beside them. *: point of attachment. NH(1S,2S-2-CONH2-cPent) = NC(=O)[C@H]1CCC[C@@H]1N*; β3hW = N[C@H](CC(=O)O)Cc1c[nH]c2ccccc12; X12 = O=C([C@H]1CCC[C@@H]1N[*:1])[*:2]; X13 = O=C([C@H]1CNC[C@@H]1N[*:1])[*:2]; ACPC(1S,2S) = N[C@H]1CCC[C@@H]1C(=O)*; hArg = N=C(N)NCCCC[C@H](N)C(=O)O; β3hE = N[C@@H](CCC(=O)O)CC(=O)O; β3hF = N[C@H](CC(=O)O)Cc1ccccc1; X14 = O=C(C1CCCC1N[*:1])[*:2]; β3hK = NCCCC[C@H](N)CC(=O)O; β3hM = CSCC[C@H](N)CC(=O)O; β3hD = NC(CC(=O)O)CC(=O)O; β3hS = N[C@@H](CO)CC(=O)O

Molecular target: T1, PTHR (Homo sapiens, UniProt Q03431)
T1 construct: expressed in transfected cells
T1 sequence (Q03431 27-593): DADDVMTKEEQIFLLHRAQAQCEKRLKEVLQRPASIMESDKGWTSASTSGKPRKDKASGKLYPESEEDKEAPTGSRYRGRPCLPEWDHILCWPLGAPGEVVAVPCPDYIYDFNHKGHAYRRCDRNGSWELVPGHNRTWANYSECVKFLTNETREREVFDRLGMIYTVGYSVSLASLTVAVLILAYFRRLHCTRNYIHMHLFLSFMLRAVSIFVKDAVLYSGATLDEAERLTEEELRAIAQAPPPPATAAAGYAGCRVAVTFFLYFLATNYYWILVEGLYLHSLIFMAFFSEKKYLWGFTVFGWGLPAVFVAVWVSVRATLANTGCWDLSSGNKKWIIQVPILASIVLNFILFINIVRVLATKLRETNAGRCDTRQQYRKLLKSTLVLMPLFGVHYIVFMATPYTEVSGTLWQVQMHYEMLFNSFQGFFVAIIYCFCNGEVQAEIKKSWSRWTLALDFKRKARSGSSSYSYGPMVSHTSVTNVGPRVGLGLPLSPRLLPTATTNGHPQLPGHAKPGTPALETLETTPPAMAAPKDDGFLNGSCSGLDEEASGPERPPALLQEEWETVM
Test: cAMP induction potency, N-terminal modifications and cyclic constraints (Tables 9, 10, 13)
Format: cell-based
Procedure: For cAMP dose-response assays, monolayers of confluent HEK 293 cells were pre-incubated with buffer containing d-luciferin (0.5 mM) in 96 well plates at room temperature until a stable baseline level of luminescence was established (30 min). Varying concentrations of agonist were then added, and the time course of luminescence response was recorded using a Perkin Elmer plate reader following α/β-peptide addition.

Row | SMILES | Fold PTH (Table 9) | further results
1 | CSCC[C@H](NC(=O)[C@H]1CCC[C@@H]1NC(=O)[C@H](CCC(N)=O)NC(=O)[C@H]1CCC[C@@H]1NC(=O)[C@H](CCC(=O)O)NC(=O)[C@H](CO)NC(=O)[C@@H](NC(=O)[C@H]1CCC[C@@H]1N)C(C)C)C(=O)N[C@@H](Cc1c[nH]cn1)C(=O)N[C@@H](CC(N)=O)C(=O)N[C@@H](CC(C)C)C(=O)NCC(=O)N[C@@H](CCCCN)C(=O)N[C@H]1CCC[C@@H]1C(=O)N[C@@H](CC(C)C)C(=O)N[C@@H](CC(N)=O)C(=O)N[C@@H](CO)C(=O)N[C@H]1CCC[C@@H]1C(=O)N[C@@H](CCC(=O)O)C(=O)N[C@@H](CCCNC(=N)N)C(=O)N[C@H](C(=O)N[C@@H](CCC(=O)O)CC(=O)N[C@@H](Cc1c[nH]c2ccccc12)C(=O)N[C@@H](CC(C)C)C(=O)N[C@@H](CCCNC(=N)N)C(=O)N[C@H]1CNC[C@@H]1C(=O)N[C@@H](CCCCN)C(=O)N[C@@H](CC(C)C)C(=O)N[C@@H](CCC(N)=O)C(=O)N[C@@H](CC(=O)O)CC(=O)N[C@H](C(=O)N[C@@H](Cc1c[nH]cn1)C(=O)N[C@@H](CC(N)=O)C(=O)N[C@H]1CCC[C@@H]1C(N)=O)C(C)C)C(C)C [CycD6_ACPC(1,5,7), XVSEXQXMHNLGKXLNSXERVEWLRZKLQDVHNX-NH2] ({ACPC(1S,2S)}-VSE[X12]Q[X12]MHNLGK[X12]LNS[X12]ERV[β3hE]WLR[X13]KLQ[β3hD]VHN-{NH(1S,2S-2-CONH2-cPent)}; N-terminus assumed) | 266 | –
2 | CC[C@H](C)[C@H](NC(=O)[C@H](CCC(=O)O)NC(=O)[C@H](CO)NC(=O)[C@@H](NC(=O)[C@H]1CCC[C@@H]1N)C(C)C)C(=O)N[C@@H](CCC(N)=O)C(=O)N[C@H]1CCC[C@@H]1C(=O)N[C@@H](CCSC)C(=O)N[C@@H](Cc1c[nH]cn1)C(=O)N[C@@H](CC(N)=O)C(=O)N[C@@H](CC(C)C)C(=O)NCC(=O)N[C@@H](CCCCN)C(=O)N[C@H]1CCC[C@@H]1C(=O)N[C@@H](CC(C)C)C(=O)N[C@@H](CC(N)=O)C(=O)N[C@@H](CO)C(=O)N[C@H]1CCC[C@@H]1C(=O)N[C@@H](CCC(=O)O)C(=O)N[C@@H](CCCNC(=N)N)C(=O)N[C@H](C(=O)N[C@@H](CCC(=O)O)CC(=O)N[C@@H](Cc1c[nH]c2ccccc12)C(=O)N[C@@H](CC(C)C)C(=O)N[C@@H](CCCNC(=N)N)C(=O)N[C@H]1CNC[C@@H]1C(=O)N[C@@H](CCCCN)C(=O)N[C@@H](CC(C)C)C(=O)N[C@@H](CCC(N)=O)C(=O)N[C@@H](CC(=O)O)CC(=O)N[C@H](C(=O)N[C@@H](Cc1c[nH]cn1)C(=O)N[C@@H](CC(N)=O)C(=O)N[C@H]1CCC[C@@H]1C(N)=O)C(C)C)C(C)C [CycD6_ACPC(1,7), XVSEIQXMHNLGKXLNSXERVEWLRZKLQDVHNX-NH2] ({ACPC(1S,2S)}-VSEIQ[X12]MHNLGK[X12]LNS[X12]ERV[β3hE]WLR[X13]KLQ[β3hD]VHN-{NH(1S,2S-2-CONH2-cPent)}; N-terminus assumed) | 7.3 | –
3 | CC[C@H](C)[C@H](NC(=O)[C@H](CCC(=O)O)NC(=O)[C@H](CO)NC(=O)[C@@H](NC(=O)[C@H]1CCC[C@@H]1N)C(C)C)C(=O)N[C@@H](CCC(N)=O)C(=O)N[C@H]1CCC[C@@H]1C(=O)N[C@@H](CCSC)C(=O)N[C@@H](Cc1c[nH]cn1)C(=O)N[C@@H](CC(N)=O)C(=O)N[C@@H](CC(C)C)C(=O)NCC(=O)N[C@@H](CCCCN)C(=O)N[C@H]1CCC[C@@H]1C(=O)N[C@@H](CC(C)C)C(=O)N[C@@H](CC(N)=O)C(=O)N[C@@H](CO)C(=O)N[C@H]1CCC[C@@H]1C(=O)N[C@@H](CCC(=O)O)C(=O)N[C@@H](CCCNC(=N)N)C(=O)N[C@H](C(=O)N[C@H]1CNC[C@@H]1C(=O)N[C@@H](Cc1c[nH]c2ccccc12)C(=O)N[C@@H](CC(C)C)C(=O)N[C@@H](CCCNC(=N)N)C(=O)N[C@H]1CNC[C@@H]1C(=O)N[C@@H](CCCCN)C(=O)N[C@@H](CC(C)C)C(=O)N[C@@H](CCC(N)=O)C(=O)N[C@H]1CCC[C@@H]1C(=O)N[C@H](C(=O)N[C@@H](Cc1c[nH]cn1)C(=O)N[C@@H](CC(N)=O)C(=O)N[C@H]1CCC[C@@H]1C(N)=O)C(C)C)C(C)C [FcycD6_ACPC(1,7), XVSEIQXMHNLGKXLNSXERVZWLRZKLQXVHNX-NH2] ({ACPC(1S,2S)}-VSEIQ[X12]MHNLGK[X12]LNS[X12]ERV[X13]WLR[X13]KLQ[X12]VHN-{NH(1S,2S-2-CONH2-cPent)}; N-terminus assumed) | 8.7 | –
4 | CSCC[C@H](NC(=O)[C@H]1CCC[C@@H]1NC(=O)[C@H](CCC(N)=O)NC(=O)[C@H]1CCC[C@@H]1NC(=O)[C@H](CCC(=O)O)NC(=O)[C@H](CO)NC(=O)[C@@H](NC(=O)C[C@@H](N)CO)C(C)C)C(=O)N[C@@H](Cc1c[nH]cn1)C(=O)N[C@@H](CC(N)=O)C(=O)N[C@@H](CC(C)C)C(=O)NCC(=O)N[C@@H](CCCCN)C(=O)N[C@H]1CCC[C@@H]1C(=O)N[C@@H](CC(C)C)C(=O)N[C@@H](CC(N)=O)C(=O)N[C@@H](CO)C(=O)N[C@H]1CCC[C@@H]1C(=O)N[C@@H](CCC(=O)O)C(=O)N[C@@H](CCCNC(=N)N)C(=O)N[C@H](C(=O)N[C@H]1CNC[C@@H]1C(=O)N[C@@H](Cc1c[nH]c2ccccc12)C(=O)N[C@@H](CC(C)C)C(=O)N[C@@H](CCCNC(=N)N)C(=O)N[C@H]1CNC[C@@H]1C(=O)N[C@@H](CCCCN)C(=O)N[C@@H](CC(C)C)C(=O)N[C@@H](CCC(N)=O)C(=O)N[C@H]1CCC[C@@H]1C(=O)N[C@H](C(=O)N[C@@H](Cc1c[nH]cn1)C(=O)N[C@@H](CC(N)=O)C(=O)N[C@H]1CCC[C@@H]1C(N)=O)C(C)C)C(C)C [FcycD6_β^3Ser1, ACPC(5, 7, SVSEXQXMHNLGKXLNSXERVZWLRZKLQXVHNX-NH2] (H-[β3hS]VSE[X12]Q[X12]MHNLGK[X12]LNS[X12]ERV[X13]WLR[X13]KLQ[X12]VHN-{NH(1S,2S-2-CONH2-cPent)}; N-terminus assumed) | – | EC50 (Table 13, non M-PTH analogs, read-out: cAMP, EC50 nM ± SEM): 0.79 nM
5 | CC[C@H](C)[C@H](NC(=O)[C@H](CCC(=O)O)NC(=O)[C@H](C)NC(=O)[C@@H](NC(=O)[C@H](C)N)C(C)C)C(=O)N[C@@H](CCC(N)=O)C(=O)NC1CCCC1C(=O)N[C@@H](CCSC)C(=O)N[C@@H](Cc1c[nH]cn1)C(=O)N[C@@H](CCC(N)=O)C(=O)N[C@@H](CCCCNC(=N)N)C(=O)N[C@@H](C)C(=O)N[C@@H](CCCCN)C(=O)N[C@H](CC(=O)N[C@@H](CC(C)C)C(=O)N[C@@H](CC(N)=O)C(=O)N[C@@H](CO)C(=O)N[C@@H](CCSC)CC(=O)N[C@@H](CCCNC(=N)N)C(=O)N[C@@H](CCCNC(=N)N)C(=O)N[C@H](C(=O)N[C@@H](CCC(=O)O)CC(=O)N[C@@H](Cc1c[nH]c2ccccc12)C(=O)N[C@@H](CC(C)C)C(=O)N[C@@H](CCCNC(=N)N)C(=O)N[C@@H](CCCCN)CC(=O)N[C@@H](CCCCN)C(=O)N[C@@H](CC(C)C)C(=O)N[C@@H](CCC(N)=O)C(=O)N[C@@H](CC(=O)O)CC(=O)N[C@H](C(=O)N[C@@H](Cc1c[nH]cn1)C(=O)N[C@@H](CC(N)=O)C(=O)N[C@H](CC(N)=O)Cc1ccccc1)C(C)C)C(C)C)Cc1c[nH]c2ccccc12 (stereo partly drawn) [M-D6] (H-AVAEIQ[X14]MHQ[hArg]AK[β3hW]LNS[β3hM]RRV[β3hE]WLR[β3hK]KLQ[β3hD]VHN[β3hF]-NH2; N-terminus assumed) | – | Fold PTH (Table 10): 5.4
